molecular target: PD-1/PD-L1 (Homo sapiens (Human), UniProt Q9NZQ7); assay: PD-1/PD-L1 Homogenous Time-Resolved Fluorescence (HTRF) binding assay; conditions: PD-1-Ig (20 nM final)/PD-L1-His (10 nM final) binding assay
Description: The ability of the compounds of the invention to bind to PD-L1 was investigated using a PD-1/PD-L1 Homogenous Time-Resolved Fluorescence (HTRF) binding assay.
The interaction of PD-1 and PD-L1 can be assessed using soluble, purified preparations of the extracellular domains of the two proteins. The PD-1 and PD-L1 protein extracellular domains were expressed as fusion proteins with detection tags, for PD-1, the tag was the Fc portion of Immunoglobulin (PD-1-Ig) and for PD-L1 it was the 6 histidine motif (PD-L1-His). All binding studies were performed in an HTRF assay buffer consisting of dPBS supplemented with 0.1% […] bovine serum albumin and 0.05% (v/v) Tween-20. For the h/PD-L1-His binding assay, inhibitors were pre-incubated with PD-L1-His (10 nM final) for 15m in 4 μl of assay buffer, followed by addition of PD-1-Ig (20 nM final) in 1 μl of assay buffer and further incubation for 15 m. HTRF detection was achieved using europium crypate-labeled anti-Ig (1 nM final) and allophycocyanin (APC) labeled anti-His (20 nM final). Antibodies were diluted in HTRF detection buffer and 5 μl was dispensed on top of the binding reaction. The reaction mixture was allowed to equilibrate for 30 minutes and the resulting signal (665 nm/620 nm ratio) was obtained using an EnVision fluorometer. Additional binding assays were established between the human proteins PD-1-Ig/PD-L2-His (20 & 5 nM, respectively) and CD80-His/PD-L1-Ig (100 & 10 nM, respectively).
Recombinant Proteins: Human PD-1 (25-167) with a C-terminal human Fc domain of immunoglobulin G (Ig) epitope tag [hPD-1 (25-167)-3S-IG] and human PD-L1 (18-239) with a C-terminal His epitope tag [hPD-L1(18-239)-TVMV-His] were expressed in HEK293T cells and purified sequentially by ProteinA affinity chromatography and size exclusion chromatography. Human PD-L2-His and CD80-His was obtained through commercial sources.
Homogenous Time-Resolved Fluorescence (HTRF) Assays of Binding of Soluble PD-1 to Soluble PD-L1. Soluble PD-1 and soluble PD-L1 refers to proteins with carboxyl-end truncations that remove the transmembrane-spanning regions and are fused to heterologous sequences, specifically the Fc portion of the human immunoglobuling G sequence (Ig) or the hexahistidine epitope tag (His). All binding studies were performed in an HTRF assay buffer consisting of dPBS supplemented with 0.1% (w/v) bovine serum albumin and 0.05% (v/v) Tween-20. For the PD-1-Ig/PD-L1-His binding assay, inhibitors were pre-incubated with PD-L1-His (10 nM final) for 15m in 4 μl of assay buffer, followed by addition of PD-1-Ig (20 nM final) in 1 μl of assay buffer and further incubation for 15 m. PD-L1 fusion proteins from either human, cynomologous macaques, mouse, or other species were used. HTRF detection was achieved using europium crypate-labeled anti-Ig monoclonal antibody (1 nM final) and allophycocyanin (APC) labeled anti-His monoclonal antibody (20 nM final). Antibodies were diluted in HTRF detection buffer and 5 μl was dispensed on top of binding reaction. The reaction was allowed to equilibrate for 30 minutes and signal (665 nm/620 nm ratio) was obtained using an EnVision fluorometer. Additional binding assays were established between PD-1-Ig/PD-L2-His (20 and 5 nM, respectively), CD80-His/PD-L1-Ig (100 and 10 nM, respectively) and CD80-His/CTLA4-Ig (10 and 5 nM, respectively).
Recombinant Proteins. Carboxyl-truncated human PD-1 (amino acids 25-167) with a C-terminal human Ig epitope tag [hPD-1 (25-167)-3S-IG] and human PD-L1 (amino acids 18-239) with a C-terminal His epitope tag [hPD-L1(19-239)-tobacco vein mottling virus protease cleavage site (TVMV)-His] were expressed in HEK293T cells and purified sequentially by recombinant Protein A affinity chromatography and size exclusion chromatography. Human PD-L2-His (Sino Biologicals), CD80-His (Sino Biologicals), CTLA4-Ig (RnD Systems) were all obtained through commercial sources.

Chain of PD-1/PD-L1 (Q9NZQ7 18-239): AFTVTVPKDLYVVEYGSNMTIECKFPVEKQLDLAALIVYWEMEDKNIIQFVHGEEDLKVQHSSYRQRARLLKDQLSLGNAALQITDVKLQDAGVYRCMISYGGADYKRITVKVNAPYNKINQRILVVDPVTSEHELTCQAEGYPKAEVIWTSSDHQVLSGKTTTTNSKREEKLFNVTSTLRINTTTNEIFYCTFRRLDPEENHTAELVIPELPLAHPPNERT

SMILES | IC50 [nM]
Cc1c(COc2cc(OCC3CCCN(C)C3)c(CN[C@@H](CO)C(=O)O)cc2Cl)cccc1-c1ccc2c(c1)OCCO2 (single isomer, unassigned) [Example 2005] | 1.9
Cc1c(COc2cc(OCC3CCCN(C)C3)c(CN[C@@H](CO)C(=O)O)cc2Cl)cccc1-c1ccc2c(c1)OCCO2 (single isomer, unassigned) [Example 2006] | 2.8
Cc1cnc(COc2cc(OCc3cccc(-c4ccc5c(c4)OCCO5)c3C)c(Cl)cc2CN[C@H](CO)C(=O)O)cn1 [Example 1001, (R)-2-((5-Chloro-4-((3-(2,3-dihydrobenzo[b][1,4]dioxin-6-yl)-2-methylbenzyl)oxy)-2-((5-methylpyrazin-2-yl)methoxy)benzyl)amino)-3-hydroxypropanoic acid] | 4.5
Cc1cnc(COc2cc(OCc3cccc(-c4ccc5c(c4)OCCO5)c3C)c(Cl)cc2CN[C@@](C)(CO)C(=O)O)cn1 [Example 1002, (S)-2-((5-Chloro-4-((3-(2,3-dihydrobenzo[b][1,4]dioxin-6-yl)-2-methylbenzyl)oxy)-2-((5-methylpyrazin-2-yl)methoxy)benzyl)amino)-3-hydroxy-2-methylpropanoic acid] | 6.8
CCn1cc(COc2cc(OCc3cccc(-c4ccc5c(c4)OCCO5)c3C)c(Cl)cc2CN[C@@](C)(CO)C(=O)O)cn1 [Example 1003, (S)-2-((5-Chloro-4-((3-(2,3-dihydrobenzo[b][1,4]dioxin-6-yl)-2-methylbenzyl)oxy)-2-((1-ethyl-1H-pyrazol-4-yl)methoxy)benzyl)amino)-3-hydroxy-2-methylpropanoic acid] | 5.8
Cc1c(COc2cc(OCc3ccnc(NC(=O)N4CCOCC4)c3)c(CN[C@@](C)(CO)C(=O)O)cc2Cl)cccc1-c1ccc2c(c1)OCCO2 [Example 1004, (S)-2-((5-Chloro-4-((3-(2,3-dihydrobenzo[b][1,4]dioxin-6-yl)-2-methylbenzyl)oxy)-2-((2-(morpholine-4-carboxamido)pyridin-4-yl)methoxy)benzyl)amino)-3-hydroxy-2-methylpropanoic acid] | 17.3
CCn1cc(COc2cc(OCc3cccc(-c4ccc5c(c4)OCCO5)c3C)c(Cl)cc2CN[C@H](CO)C(=O)O)cn1 [Example 1005, (R)-2-((5-Chloro-4-((3-(2,3-dihydrobenzo[b][1,4]dioxin-6-yl)-2-methylbenzyl)oxy)-2-((1-ethyl-1H-pyrazol-4-yl)methoxy)benzyl)amino)-3-hydroxypropanoic acid] | 7.9
COC(=O)CCSc1cncc(COc2cc(OCc3cccc(-c4ccc5c(c4)OCCO5)c3C)c(Cl)cc2CN[C@@](C)(CO)C(=O)O)c1 [Example 1006, (S)-2-((5-Chloro-4-((3-(2,3-dihydrobenzo[b][1,4]dioxin-6-yl)-2-methylbenzyl)oxy)-2-((5-((3-methoxy-3-oxopropyl)thio)pyridin-3-yl)methoxy)benzyl)amino)-3-hydroxy-2-methylpropanoic acid] | 1.1
COC(=O)CCSc1cncc(COc2cc(OCc3cccc(-c4ccc5c(c4)OCCO5)c3C)c(Cl)cc2CN2CCCC[C@H]2C(=O)O)c1 [Example 1007, (S)-1-(5-Chloro-4-((3-(2,3-dihydrobenzo[b][1,4]dioxin-6-yl)-2-methylbenzyl)oxy)-2-((5-((3-methoxy-3-oxopropyl)thio)pyridin-3-yl)methoxy)benzyl)piperidine-2-carboxylic acid] | 27.6
Cc1c(COc2cc(OCc3cnn(CC#N)c3)c(CN[C@@](C)(CO)C(=O)O)cc2Cl)cccc1-c1ccc2c(c1)OCCO2 [Example 1008, (S)-2-((5-chloro-2-((1-(cyanomethyl)-1H-pyrazol-4-yl)methoxy)-4-((3-(2,3-dihydrobenzo[b][1,4]dioxin-6-yl)-2-methylbenzyl)oxy)benzyl)amino)-3-hydroxy-2-methylpropanoic acid] | 1.7
Cc1c(COc2cc(OCc3cnn(CC(=O)OC(C)(C)C)c3)c(CN[C@@](C)(CO)C(=O)O)cc2Cl)cccc1-c1ccc2c(c1)OCCO2 [Example 1009, (S)-2-((2-((1-(2-(tert-Butoxy)-2-oxoethyl)-1H-pyrazol-4-yl)methoxy)-5-chloro-4-((3-(2,3-dihydrobenzo[b][1,4]dioxin-6-yl)-2-methylbenzyl)oxy)benzyl)amino)-3-hydroxy-2-methylpropanoic acid] | 43.7
Cc1c(COc2cc(OCc3cncc(SCc4ccccc4)c3)c(CN3CCCC[C@H]3C(=O)O)cc2Cl)cccc1-c1ccc2c(c1)OCCO2 [Example 1010, (S)-1-(2-((5-(Benzylthio)pyridin-3-yl)methoxy)-5-chloro-4-((3-(2,3-dihydrobenzo [b][1,4]dioxin-6-yl)-2-methylbenzyl)oxy)benzyl)piperidine-2-carboxylic acid] | 43.4
Cc1c(COc2cc(OCc3cnn(-c4ccccn4)c3)c(CN[C@@](C)(CO)C(=O)O)cc2Cl)cccc1-c1ccc2c(c1)OCCO2 [Example 1011, (S)-2-((5-Chloro-4-((3-(2,3-dihydrobenzo[b][1,4]dioxin-6-yl)-2-methylbenzyl)oxy)-2-((1-(pyridin-2-yl)-1H-pyrazol-4-yl)methoxy)benzyl)amino)-3-hydroxy-2-methylpropanoic acid] | 11
Cc1c(COc2cc(OCc3cncc(S(=O)(=O)CCC(=O)O)c3)c(CN3CCCC[C@H]3C(=O)O)cc2Cl)cccc1-c1ccc2c(c1)OCCO2 [Example 1012, (S)-1-(2-((5-((2-Carboxyethyl)sulfonyl)pyridin-3-yl)methoxy)-5-chloro-4-((3-(2,3-dihydrobenzo[b]1[1,4]dioxin-6-yl)-2-methylbenzyl)oxy)benzyl)piperidine-2-carboxylic acid] | 3
Cc1c(COc2cc(OCc3cccc(-c4nc(CC(=O)O)cs4)c3)c(CN[C@@](C)(CO)C(=O)O)cc2Cl)cccc1-c1ccc2c(c1)OCCO2 [Example 1013, (S)-2-((2-((3-(4-(Carboxymethyl)thiazol-2-yl)benzyl)oxy)-5-chloro-4-((3-(2,3-dihydrobenzo[b][1,4]dioxin-6-yl)-2-methylbenzyl)oxy)benzyl)amino)-3-hydroxy-2-methylpropanoic acid] | 72
Cc1c(COc2cc(OCc3cncc(SCCC(=O)O)c3)c(CN[C@@](C)(CO)C(=O)O)cc2Cl)cccc1-c1ccc2c(c1)OCCO2 [Example 1014, (S)-2-((2-((5-((2-Carboxyethyl)thio)pyridin-3-yl)methoxy)-5-chloro-4-((3-(2,3-dihydrobenzo[b][1,4]dioxin-6-yl)-2-methylbenzyl)oxy)benzyl)amino)-3-hydroxy-2-methylpropanoic acid] | 6.6
Cc1c(COc2cc(OCc3cccc(-c4nc(CC(=O)O)co4)c3)c(CN[C@@](C)(CO)C(=O)O)cc2Cl)cccc1-c1ccc2c(c1)OCCO2 [Example 1015, (S)-2-((2-((3-(4-(Carboxymethyl)oxazol-2-yl)benzyl)oxy)-5-chloro-4-((3-(2,3-dihydrobenzo[b][1,4]dioxin-6-yl)-2-methylbenzyl)oxy)benzyl)amino)-3-hydroxy-2-methylpropanoic acid] | 68.4
Cc1c(COc2cc(OCc3cnn(CC(=O)O)c3)c(CN[C@@](C)(CO)C(=O)O)cc2Cl)cccc1-c1ccc2c(c1)OCCO2 [Example 1016, (S)-2-((2-((1-(Carboxymethyl)-1H-pyrazol-4-yl)methoxy)-5-chloro-4-((3-(2,3-dihydrobenzo[b][1,4]dioxin-6-yl)-2-methylbenzyl)oxy)benzyl)amino)-3-hydroxy-2-methylpropanoic acid] | 5.4

— patent US20250230153A1, “2,3-DIHYDROBENZO[B][1,4]DIOXIN-6-YL CONTAINING COMPOUNDS USEFUL AS IMMUNOMODULATORS” (BRISTOL-MYERS SQUIBB COMPANY, priority 2021, published 2025)
